Data: article PMC9841981 (Journal of Medicinal Chemistry, 2022)

Key:
[1] = system: P. aeruginosa ΔpvdFΔpchA with additional deletion of pfeA; experiment: Growth kinetics, additional deletion of pfeA; format: cell-based, Pseudomonas aeruginosa; details: 10 μM, CAA medium, 30 °C, 48 h, three independent biological replicates
[2] = system: P. aeruginosa; experiment: MIC assay in CAA medium supplemented with ferric iron; format: cell-based, Pseudomonas aeruginosa; details: CAA medium supplemented with ferric iron (100 μM)
[3] = system: P. aeruginosa ΔpvdFΔpchA strain; experiment: Antimicrobial susceptibility assay; details: iron-restricted CAA medium, MIC assay, 24 and 48 h

## C#CCCCC(=O)Nc1c(CNC(=O)c2cccc(O)c2O)cc(CNC(=O)c2cccc(O)c2O)cc1CNC(=O)c1cccc(O)c1O [Compound 4, Alkyne-MECAM-OH]
[1]
  growth in the strain lacking PfeA (OD 600 nm): delayed growth slightly

## C#CCNC(=O)CN1CCN(CC(=O)NCCNC(=O)c2cccc(O)c2O)CCN(CC(=O)NCCNC(=O)c2cccc(O)c2O)CCN(CC(=O)NCCNC(=O)c2cccc(O)c2O)CC1 [Compound 2, Alkyne-DOTAM-OH]
[2]
  antimicrobial effect in the presence of excess ferric iron: lost their antimicrobial effect

## CNC(C)C1CCC(N)C(OC2C(N)CC(N)C(OC3OCC(C)(O)C(NC)C3O)C2O)O1 (stereo not drawn) [Gentamicin]
[3]
  growth inhibition / antimicrobial activity (in words): exhibited an activity in the expected range
